Test results taken from US10820597B2, “Phytosanitary composition comprising essential oils that potentiate antifungal activity” (BIOFUNGITEK, S. L., priority 2011, dated 2020).
Where “and” joins values, the source holds several entries; their conditions need not be identical. Equal entries are not always repeated. Where two headings read alike, the source gives them in different places.

Columns and labels:
Botrytis cinerea [1] = assay: Growth of B. cinerea in PDB liquid culture, optical density after 24 h; assay type: cell-based
Alternaria alternata [2] = assay: Growth of A. alternata in liquid culture, optical density after 24 h; assay type: cell-based
Penicillium digitatum [3] = assay: Growth of P. digitatum in liquid culture, optical density after 24 h; assay type: cell-based
Cercospora beticola = assay: Growth of C. beticola on PDA, colony diameter; assay type: cell-based
Procedure: Cercospora beticola was cultured on PDA (potato dextrose agar) culture medium buffered to a pH value not exceeding 9.5. […] The % inhibition was calculated with the following formula:
[formula] wherein “colony diameter (control)” is the size of the control colony (without the compounds to be tested) and “colony diameter (x)” is the size of the colony with the substance(s) to be tested. A fixed K2CO3 concentration of 7.24 mM was tested in C. beticola.
The fungus C. beticola was cultured in a similar way to Example 16 with 10 ppm of carvacrol.
The fungus C. beticola was cultured in a similar way to Example 16 with a fixed concentration of K2CO3 (7.24 mM) and carvacrol (10 ppm).

Botrytis cinerea [4] = assay: Treated tomato leaves infected with B. cinerea, % infection after two weeks; assay type: in vivo
Alternaria alternata [5] = assay: Treated tomato leaves infected with A. alternata, % infection; assay type: in vivo
Phytophthora infestans = assay type: in vivo; settings: tomato plants
Leveillula taurica = assay type: in vivo
Penicillium digitatum [6] = settings: green mold on oranges; cited from earlier work
[7] = carvacrol 308 ppm, listed as carvacrol
[8] = K2CO3 concentration between 3.5 and 5 mM
[9] = thymol 350 ppm, listed as thymol

Cc1ccc(C(C)C)cc1O [Carvacrol, carvacrol]
inhibition at 0.1 ppm (Botrytis cinerea [1]; Botrytis cinerea, 24 h, read-out: Inhibition ± SD (%), carvacrol 0.1 ppm, 24 h OD): 0% | inhibition at 0.31 ppm (Botrytis cinerea [1]; Botrytis cinerea, 24 h, read-out: Inhibition ± SD (%), carvacrol 0.31 ppm, 24 h OD): 10.5 ± 7.7% | inhibition at 1 ppm (Botrytis cinerea [1]; Botrytis cinerea, 24 h, read-out: Inhibition ± SD (%), carvacrol 1 ppm, 24 h OD): 13.7 ± 4.1% | inhibition at 3.1 ppm (Botrytis cinerea [1]; Botrytis cinerea, 24 h, read-out: Inhibition ± SD (%), carvacrol 3.1 ppm, 24 h OD): 22.4 ± 3.4% | inhibition at 10 ppm (Botrytis cinerea [1]; Botrytis cinerea, 24 h, read-out: Inhibition ± SD (%), carvacrol 10 ppm, 24 h OD): 21% | inhibition at 31 ppm (Botrytis cinerea [1]; Botrytis cinerea, 24 h, read-out: Inhibition ± SD (%), carvacrol 31 ppm, 24 h OD): 51.4 ± 5.5% | inhibition at 100 ppm (Botrytis cinerea [1]; Botrytis cinerea, 24 h, read-out: Inhibition ± SD (%), carvacrol 100 ppm, 24 h OD): 74.4 ± 1.1% | Inhibition ± SD (%) (Botrytis cinerea [1]; carvacrol 10 ppm, 24 h OD): 21.3 ± 5.0% | inhibition at 0.1 ppm (Alternaria alternata [2]; Alternaria alternata, read-out: Inhibition ± SD (%), carvacrol 0.1 ppm): 0% | inhibition at 0.31 ppm (Alternaria alternata [2]; Alternaria alternata, read-out: Inhibition ± SD (%), carvacrol 0.31 ppm): 2 ± 0.3% | inhibition at 1 ppm (Alternaria alternata [2]; Alternaria alternata, read-out: Inhibition ± SD (%), carvacrol 1 ppm): 3.5 ± 0.8% | inhibition at 3.1 ppm (Alternaria alternata [2]; Alternaria alternata, read-out: Inhibition ± SD (%), carvacrol 3.1 ppm): 5.8 ± 1.4% | inhibition at 10 ppm (Alternaria alternata [2]; Alternaria alternata, read-out: Inhibition ± SD (%), carvacrol 10 ppm): 17.7 ± 11% | inhibition at 31 ppm (Alternaria alternata [2]; Alternaria alternata, read-out: Inhibition ± SD (%), carvacrol 31 ppm): 27% | inhibition at 100 ppm (Alternaria alternata [2]; Alternaria alternata, read-out: Inhibition ± SD (%), carvacrol 100 ppm): 74.6 ± 8% | Inhibition ± SD (%) (Alternaria alternata [2]; carvacrol 31 ppm): 27.2 ± 14.0% | inhibition at 0.1 ppm (Penicillium digitatum [3]; Penicillium digitatum, 24 h, read-out: Inhibition ± SD (%), carvacrol 0.1 ppm, 24 h OD): 32.3 ± 2.8% | inhibition at 0.31 ppm (Penicillium digitatum [3]; Penicillium digitatum, 24 h, read-out: Inhibition ± SD (%), carvacrol 0.31 ppm, 24 h OD): 34.3 ± 2.8% | inhibition at 1 ppm (Penicillium digitatum [3]; Penicillium digitatum, 24 h, read-out: Inhibition ± SD (%), carvacrol 1 ppm, 24 h OD): 37.9 ± 3% | inhibition at 3.1 ppm (Penicillium digitatum [3]; Penicillium digitatum, 24 h, read-out: Inhibition ± SD (%), carvacrol 3.1 ppm, 24 h OD): 52.6 ± 2.2% | inhibition at 10 ppm (Penicillium digitatum [3]; Penicillium digitatum, 24 h, read-out: Inhibition ± SD (%), carvacrol 10 ppm, 24 h OD): 58% | inhibition at 31 ppm (Penicillium digitatum [3]; Penicillium digitatum, 24 h, read-out: Inhibition ± SD (%), carvacrol 31 ppm, 24 h OD): 86 ± 1.1% | inhibition at 100 ppm (Penicillium digitatum [3]; Penicillium digitatum, 24 h, read-out: Inhibition ± SD (%), carvacrol 100 ppm, 24 h OD): 100% | Inhibition ± SD (%) (Penicillium digitatum [3]; carvacrol 10 ppm, 24 h OD): 57.8 ± 2.1% | inhibition at 10 ppm (Cercospora beticola; Cercospora beticola, carvacrol 10 ppm, read-out: Inhibition ± SD (%)): 17% | Inhibition ± SD (%) (Botrytis cinerea [4]; carvacrol 26 ppm): 7.2% | Inhibition ± SD (%) (Botrytis cinerea [4]; carvacrol 31 ppm): 7.4% | Inhibition ± SD (%) (Botrytis cinerea [4]; carvacrol 100 ppm): 16.7% | Inhibition ± SD (%) (Botrytis cinerea [4]; carvacrol 200 ppm): 18.6% | Inhibition ± SD (%) (Botrytis cinerea [4]; carvacrol 308 ppm): 20.8% | Inhibition ± SD (%) (Botrytis cinerea [4]; [7]): 21% | Inhibition ± SD (%) (Alternaria alternata [5]; carvacrol 26 ppm): 4.3% | Inhibition ± SD (%) (Alternaria alternata [5]; carvacrol 31 ppm): 5.8% | Inhibition ± SD (%) (Alternaria alternata [5]; carvacrol 100 ppm): 11.4% | Inhibition ± SD (%) (Alternaria alternata [5]; carvacrol 200 ppm): 16.1% | Inhibition ± SD (%) (Alternaria alternata [5]; carvacrol 308 ppm): 18% and 18.4% | Inhibition ± SD (%) (Phytophthora infestans; carvacrol 26 ppm): 3.2 ± 0.8% | Inhibition ± SD (%) (Phytophthora infestans; carvacrol 150 ppm): 17.1 ± 2.3% | Inhibition ± SD (%) (Phytophthora infestans; carvacrol 308 ppm): 35.0 ± 4.8% | Inhibition ± SD (%) (Phytophthora infestans; [7]): 35%

O=C([O-])[O-].[K+].[K+] [K2CO3, potassium carbonate]
Inhibition ± SD (%) (Botrytis cinerea [1]; K2CO3 3.5 mM, 24 h OD): 48% and 48.2% | Inhibition ± SD (%) (Botrytis cinerea [1]; K2CO3 4.25 mM, 24 h OD): 53.3% | Inhibition ± SD (%) (Botrytis cinerea [1]; K2CO3 4.5 mM, 24 h OD): 67.2% | Inhibition ± SD (%) (Botrytis cinerea [1]; K2CO3 5 mM, 24 h OD): 71.0% | inhibition of the culture (Botrytis cinerea [1]; [8]): inhibition of the B. cinerea culture was observed | Inhibition ± SD (%) (Alternaria alternata [2]; K2CO3 3.5 mM, 24 h OD): 32% and 31.5% | Inhibition ± SD (%) (Alternaria alternata [2]; K2CO3 4.25 mM, 24 h OD): 39.7% | Inhibition ± SD (%) (Alternaria alternata [2]; K2CO3 4.5 mM, 24 h OD): 48.0% | Inhibition ± SD (%) (Alternaria alternata [2]; K2CO3 5 mM, 24 h OD): 59.0% | inhibition of the culture (Alternaria alternata [2]; [8]): inhibition of the A. alternata culture was observed | Inhibition ± SD (%) (Penicillium digitatum [3]; K2CO3 3.5 mM, 24 h OD): 29% and 29.1% | Inhibition ± SD (%) (Penicillium digitatum [3]; K2CO3 4.25 mM, 24 h OD): 33.0% | Inhibition ± SD (%) (Penicillium digitatum [3]; K2CO3 4.5 mM, 24 h OD): 36.9% | Inhibition ± SD (%) (Penicillium digitatum [3]; K2CO3 5 mM, 24 h OD): 39.5% | inhibition of the culture (Penicillium digitatum [3]; [8]): inhibition of the P. digitatum culture was observed | Inhibition ± SD (%) (Cercospora beticola; K2CO3 7.24 mM): 25% | Inhibition ± SD (%) (Botrytis cinerea [4]; K2CO3 12 mM): 14% and 13.4% | Inhibition ± SD (%) (Botrytis cinerea [4]; K2CO3 13 mM): 14% and 13.5% | Inhibition ± SD (%) (Botrytis cinerea [4]; K2CO3 14 mM): 13.8% | Inhibition ± SD (%) (Botrytis cinerea [4]; K2CO3 15 mM): 13.8% | Inhibition ± SD (%) (Botrytis cinerea [4]; K2CO3 22 mM): 15.3% | Inhibition ± SD (%) (Alternaria alternata [5]; K2CO3 12 mM): 6.5% | Inhibition ± SD (%) (Alternaria alternata [5]; K2CO3 13 mM): 7% | Inhibition ± SD (%) (Alternaria alternata [5]; K2CO3 14 mM): 7.2% | Inhibition ± SD (%) (Alternaria alternata [5]; K2CO3 15 mM): 7.8% | Inhibition ± SD (%) (Alternaria alternata [5]; K2CO3 22 mM): 8.6% | Inhibition ± SD (%) (Phytophthora infestans; K2CO3 15 mM): 19% and 18.5 ± 3.6% | Inhibition ± SD (%) (Leveillula taurica; K2CO3 15 mM, tomato plants): 14% | Inhibition ± SD (%) (Leveillula taurica; in vivo): 14% and 13.9 ± 0.5% | fungicide treatment efficacy (Penicillium digitatum [6]): effective as fungicide treatment

Cc1ccc(C(C)C)c(O)c1 [Thymol, thymol]
inhibition at 0.31 ppm (Botrytis cinerea [1]; Botrytis cinerea, 24 h, thymol 0.31 ppm, 24 h OD, read-out: Inhibition ± SD (%)): 0% | inhibition at 1 ppm (Botrytis cinerea [1]; Botrytis cinerea, 24 h, thymol 1 ppm, 24 h OD, read-out: Inhibition ± SD (%)): 2.1 ± 2.9% | inhibition at 3.1 ppm (Botrytis cinerea [1]; Botrytis cinerea, 24 h, thymol 3.1 ppm, 24 h OD, read-out: Inhibition ± SD (%)): 10.7 ± 2.3% | inhibition at 10 ppm (Botrytis cinerea [1]; Botrytis cinerea, 24 h, thymol 10 ppm, 24 h OD, read-out: Inhibition ± SD (%)): 13% | inhibition at 31 ppm (Botrytis cinerea [1]; Botrytis cinerea, 24 h, thymol 31 ppm, 24 h OD, read-out: Inhibition ± SD (%)): 32 ± 1.7% | inhibition at 100 ppm (Botrytis cinerea [1]; Botrytis cinerea, 24 h, thymol 100 ppm, 24 h OD, read-out: Inhibition ± SD (%)): 88.2 ± 0.6% | Inhibition ± SD (%) (Botrytis cinerea [1]; thymol 10 ppm, 24 h OD): 12.6 ± 2.4% | inhibition at 0.31 ppm (Alternaria alternata [2]; Alternaria alternata, thymol 0.31 ppm, 24 h OD, read-out: Inhibition ± SD (%)): 0% | inhibition at 1 ppm (Alternaria alternata [2]; Alternaria alternata, thymol 1 ppm, 24 h OD, read-out: Inhibition ± SD (%)): 4.1 ± 2.9% | inhibition at 3.1 ppm (Alternaria alternata [2]; Alternaria alternata, thymol 3.1 ppm, 24 h OD, read-out: Inhibition ± SD (%)): 10.4 ± 2.6% | inhibition at 10 ppm (Alternaria alternata [2]; Alternaria alternata, thymol 10 ppm, 24 h OD, read-out: Inhibition ± SD (%)): 16 ± 2% | inhibition at 31 ppm (Alternaria alternata [2]; Alternaria alternata, thymol 31 ppm, 24 h OD, read-out: Inhibition ± SD (%)): 29% | inhibition at 100 ppm (Alternaria alternata [2]; Alternaria alternata, thymol 100 ppm, 24 h OD, read-out: Inhibition ± SD (%)): 69.4% | inhibition at 0.31 ppm (Penicillium digitatum [3]; Penicillium digitatum, 24 h, thymol 0.31 ppm, 24 h OD, read-out: Inhibition ± SD (%)): 28.2 ± 3.9% | inhibition at 1 ppm (Penicillium digitatum [3]; Penicillium digitatum, 24 h, thymol 1 ppm, 24 h OD, read-out: Inhibition ± SD (%)): 24.2 ± 6% | inhibition at 3.1 ppm (Penicillium digitatum [3]; Penicillium digitatum, 24 h, thymol 3.1 ppm, 24 h OD, read-out: Inhibition ± SD (%)): 36.3 ± 2.3% | inhibition at 10 ppm (Penicillium digitatum [3]; Penicillium digitatum, 24 h, thymol 10 ppm, 24 h OD, read-out: Inhibition ± SD (%)): 36.2 ± 2% | inhibition at 31 ppm (Penicillium digitatum [3]; Penicillium digitatum, 24 h, thymol 31 ppm, 24 h OD, read-out: Inhibition ± SD (%)): 51% | inhibition at 100 ppm (Penicillium digitatum [3]; Penicillium digitatum, 24 h, thymol 100 ppm (first column headed 100), 24 h OD, read-out: Inhibition ± SD (%)): 78.3 ± 2.2% | inhibition at 100 ppm (Penicillium digitatum [3]; Penicillium digitatum, 24 h, thymol 100 ppm (second column headed 100), 24 h OD, read-out: Inhibition ± SD (%)): 95.6 ± 0.5% | Inhibition ± SD (%) (Penicillium digitatum [3]; thymol 31 ppm, 24 h OD): 50.7 ± 2.0% | Inhibition ± SD (%) (Botrytis cinerea [4]; thymol 35 ppm): 7.4% | Inhibition ± SD (%) (Botrytis cinerea [4]; thymol 100 ppm): 17.7% | Inhibition ± SD (%) (Botrytis cinerea [4]; thymol 200 ppm): 20.9% | Inhibition ± SD (%) (Botrytis cinerea [4]; thymol 350 ppm): 22.8% | Inhibition ± SD (%) (Botrytis cinerea [4]; [9]): 23% | Inhibition ± SD (%) (Alternaria alternata [5]; thymol 35 ppm): 10.0% | Inhibition ± SD (%) (Alternaria alternata [5]; thymol 100 ppm): 15.2% | Inhibition ± SD (%) (Alternaria alternata [5]; thymol 200 ppm): 19.3% | Inhibition ± SD (%) (Alternaria alternata [5]; thymol 350 ppm): 21.3% | Inhibition ± SD (%) (Alternaria alternata [5]; [9]): 21% | Inhibition ± SD (%) (Phytophthora infestans; thymol 35 ppm): 4.3 ± 0.7% | Inhibition ± SD (%) (Phytophthora infestans; thymol 150 ppm): 16.2 ± 3.2% | Inhibition ± SD (%) (Phytophthora infestans; thymol 350 ppm): 33.6 ± 5.6% | Inhibition ± SD (%) (Phytophthora infestans; [9]): 34%
